# Data reported in publication PMC12736120, “First-in-Human Phase I Clinical Trial of SLC-391, a Novel and Selective AXL Inhibitor, in Patients with Advanced Solid Tumours” (Pharmaceuticals, 2025).
# Where two headings read alike, the source gives them in different places.
# Assay: Plasma pharmacokinetics, QD and BID cohorts (non-compartmental)
# Format: in vivo, human
# Conditions: for Cmin, Mean / Cmin, Median / AUC / AUC(0-t) / Cmax / Tmax: plasma; for AR Factor (accumulation ratio), AUC0–12 / AR Factor (accumulation ratio), AUC0–last / AR Factor (accumulation ratio), Cmax: C1D21 vs C1D1; for AUC / AUC(0-t) / Cmax / Tmax: human, oral
# Protocol: PK parameters were calculated by standard non-compartmental methods for SLC-391. Due to the long half-life of SLC-391 compared to the dosing interval, it was not possible to calculate a number of PK parameters, including plasma half-life and rate of elimination. Accumulation was assessed from the mean accumulation ratio factor (AR factor) calculated as the repeated dose (C1D21) mean value/single dose (C1D1) mean value for the PK parameters Cmax, AUC0–12, and AUC0–last for each dose group.
# During QD dosing, blood samples for determination of SLC-391 plasma concentrations were collected predose and at 0.5, 1, 2, 3, 4, 6, 8, and 24 h after SLC-391 administration on cycle 1 day 1 (C1D1) and cycle 1 day 21 (C1D21). During BID dosing, blood samples were collected predose and at 1, 2, 3, 4, 6, 8, and 12 h after the first daily dose (before the second daily dose). Where possible, further samples were then collected at 13, 14, 22, and 24 h after the initial dose (predose C1D2). Blood samples were also collected on C1D21 (steady state) predose and at 1, 2, 3, 4, 6, 8, and 12 h after the first daily dose (before the second daily dose). Where possible, further samples were then collected at 13, 14, 22, and 24 h after the initial C1D21 dose (predose C2D1). An additional blood sample was also taken, where possible, at the end of treatment (EOT) visit.
# After collection, blood samples were centrifuged, and plasma was separated and stored at −80 °C. Plasma concentrations of SLC-391 were measured by a validated analytical method involving liquid–liquid extraction followed by high-performance liquid chromatography (HPLC)–mass/mass spectroscopy assay using a Water Quattro Premier tandem quadrupole mass spectroscopy with Waters MassLynx data acquisition and processing software. Plasma analysis was carried out by Microconstants (San Diego, CA, USA) in compliance with the US FDA GLP regulations. The calibration range of the assay was from 0.100 to 100 ng/mL. Quality control samples prepared at 4 different analyte concentrations were analysed with each batch of samples against a separately prepared calibration standard. PK parameters were collected following single (day 1) and repeat dose (day 21) administration. PK parameters were summarised with appropriate descriptive statistics where possible (e.g., mean, geometric mean, median, maximum, minimum, and coefficient of variation). Descriptive PK parameters were determined by standard non-compartmental methods based on the concentration–time data of each subject. The nominal time was used for descriptive statistics calculations, and the actual sample collection times were used in PK analyses. PK analyses were performed using validated Phoenix WinNonlin Professional 8.3 (Certara, L.P., St. Louis, MO, USA).
smiles,measurement,setting,value
"Nc1ncc(-c2cnn(C3CCNCC3)c2)cc1-c1nnc(CC2CC2)o1 [SLC-391, 3-(5-[cyclopropylmethyl]-1,3,4-oxadiazol-2-yl)-5-(1-[piperidin-4-yl]-1H-pyrazol-4-yl)-pyridin-2-amine]","Cmin, Mean","25 mg, QD, C1D21",10.3 ng/mL
same,"Cmin, Median","25 mg, QD, C1D21",7.8 ng/mL
same,"Cmin, Mean","50 mg, QD, C1D21",34.9 ng/mL
same,"Cmin, Median","50 mg, QD, C1D21",34.9 ng/mL
same,Cmin,"75 mg BID, C1D21, mean, n=3, plasma",147.5 ng/mL
same,Cmin,"75 mg BID, C1D21, median, n=3, plasma",128.0 ng/mL
same,"AR Factor (accumulation ratio), AUC0–12",75 mg BID,3.2
same,"AR Factor (accumulation ratio), AUC0–last",75 mg BID,3.2
same,"AR Factor (accumulation ratio), Cmax",75 mg BID,2.4
same,"Cmin, Mean","100 mg, QD, C1D21",151.8 ng/mL
same,"Cmin, Median","100 mg, QD, C1D21",151.8 ng/mL
same,Cmin,"110 mg BID, C1D21, mean, n=3, plasma",145.6 ng/mL
same,Cmin,"110 mg BID, C1D21, median, n=3, plasma",90.2 ng/mL
same,"AR Factor (accumulation ratio), AUC0–12",110 mg BID,3.5
same,"AR Factor (accumulation ratio), AUC0–last",110 mg BID,3.7
same,"AR Factor (accumulation ratio), Cmax",110 mg BID,2.6
same,"Cmin, Mean","125 mg, QD, C1D21",33.7 ng/mL
same,"Cmin, Median","125 mg, QD, C1D21",42.0 ng/mL
same,Cmin,"150 mg BID, C1D21, mean, n=6, plasma",243.5 ng/mL
same,Cmin,"150 mg BID, C1D21, median, n=6, plasma",242.5 ng/mL
same,"AR Factor (accumulation ratio), AUC0–12",150 mg BID,4.4
same,"AR Factor (accumulation ratio), AUC0–last",150 mg BID,3.9
same,"AR Factor (accumulation ratio), Cmax",150 mg BID,2.2
same,"Cmin, Mean","150 mg, QD, C1D21",102.8 ng/mL
same,"Cmin, Median","150 mg, QD, C1D21",89.9 ng/mL
same,Cmin,"200 mg BID, C1D21, mean, n=2, plasma",471.5 ng/mL
same,Cmin,"200 mg BID, C1D21, median, n=2, plasma",471.5 ng/mL
same,"AR Factor (accumulation ratio), AUC0–12",200 mg BID,8.7
same,"AR Factor (accumulation ratio), AUC0–last",200 mg BID,8.0
same,"AR Factor (accumulation ratio), Cmax",200 mg BID,5.0
same,AUC,"25 mg, QD, C1D1, read-out: AUC0–12, Mean",177 ng·h/mL
same,AUC,"25 mg, QD, C1D1, read-out: AUC0–12, Median",211 ng·h/mL
same,AUC(0-t),"25 mg, QD, C1D1, read-out: AUC0–last, Mean",270 ng·h/mL
same,AUC(0-t),"25 mg, QD, C1D1, read-out: AUC0–last, Median",302 ng·h/mL
same,Cmax,"25 mg, QD, C1D1, read-out: Cmax, Mean",32.5 ng/mL
same,Cmax,"25 mg, QD, C1D1, read-out: Cmax, Median",39.6 ng/mL
same,Tmax,"25 mg, QD, C1D1, read-out: Tmax, Mean",2 h
same,Tmax,"25 mg, QD, C1D1, read-out: Tmax, Median",2 h
same,AUC,"25 mg, QD, C1D21, read-out: AUC0–12, Mean",286 ng·h/mL
same,AUC,"25 mg, QD, C1D21, read-out: AUC0–12, Median",232 ng·h/mL
same,AUC(0-t),"25 mg, QD, C1D21, read-out: AUC0–last, Mean",461 ng·h/mL
same,AUC(0-t),"25 mg, QD, C1D21, read-out: AUC0–last, Median",366 ng·h/mL
same,Cmax,"25 mg, QD, C1D21, read-out: Cmax, Mean",41.9 ng/mL
same,Cmax,"25 mg, QD, C1D21, read-out: Cmax, Median",41.2 ng/mL
same,Tmax,"25 mg, QD, C1D21, read-out: Tmax, Mean",2.7 h
same,Tmax,"25 mg, QD, C1D21, read-out: Tmax, Median",2.1 h
same,AUC,"50 mg, QD, C1D1, read-out: AUC0–12, Mean",382 ng·h/mL
same,AUC,"50 mg, QD, C1D1, read-out: AUC0–12, Median",413 ng·h/mL
same,AUC(0-t),"50 mg, QD, C1D1, read-out: AUC0–last, Mean",594 ng·h/mL
same,AUC(0-t),"50 mg, QD, C1D1, read-out: AUC0–last, Median",643 ng·h/mL
same,Cmax,"50 mg, QD, C1D1, read-out: Cmax, Mean",72.9 ng/mL
same,Cmax,"50 mg, QD, C1D1, read-out: Cmax, Median",65.8 ng/mL
same,Tmax,"50 mg, QD, C1D1, read-out: Tmax, Mean",2 h
same,Tmax,"50 mg, QD, C1D1, read-out: Tmax, Median",1 h
same,AUC,"50 mg, QD, C1D21, read-out: AUC0–12, Mean",706 ng·h/mL
same,AUC,"50 mg, QD, C1D21, read-out: AUC0–12, Median",706 ng·h/mL
same,AUC(0-t),"50 mg, QD, C1D21, read-out: AUC0–last, Mean",1210 ng·h/mL
same,AUC(0-t),"50 mg, QD, C1D21, read-out: AUC0–last, Median",1210 ng·h/mL
same,Cmax,"50 mg, QD, C1D21, read-out: Cmax, Mean",99.2 ng/mL
same,Cmax,"50 mg, QD, C1D21, read-out: Cmax, Median",99.2 ng/mL
same,Tmax,"50 mg, QD, C1D21, read-out: Tmax, Mean",1.5 h
same,Tmax,"50 mg, QD, C1D21, read-out: Tmax, Median",1.5 h
same,AUC,"75 mg, 75 mg BID, C1D1, mean, n=3, plasma, read-out: AUC0–12",706 ng·h/mL
same,AUC(0-t),"75 mg, 75 mg BID, C1D1, mean, n=3, plasma, read-out: AUC0–last",1390 ng·h/mL
same,Cmax,"75 mg, 75 mg BID, C1D1, mean, n=3, plasma, read-out: Cmax",114 ng/mL
same,Tmax,"75 mg, 75 mg BID, C1D1, mean, n=3, plasma, read-out: Tmax",9.4 h
same,AUC,"75 mg, 75 mg BID, C1D1, median, n=3, plasma, read-out: AUC0–12",541 ng·h/mL
same,AUC(0-t),"75 mg, 75 mg BID, C1D1, median, n=3, plasma, read-out: AUC0–last",1110 ng·h/mL
same,Cmax,"75 mg, 75 mg BID, C1D1, median, n=3, plasma, read-out: Cmax",93.4 ng/mL
same,Tmax,"75 mg, 75 mg BID, C1D1, median, n=3, plasma, read-out: Tmax",3 h
same,AUC,"75 mg, 75 mg BID, C1D21, mean, n=3, plasma, read-out: AUC0–12",2290 ng·h/mL
same,AUC(0-t),"75 mg, 75 mg BID, C1D21, mean, n=3, plasma, read-out: AUC0–last",4420 ng·h/mL
same,Cmax,"75 mg, 75 mg BID, C1D21, mean, n=3, plasma, read-out: Cmax",267 ng/mL
same,Tmax,"75 mg, 75 mg BID, C1D21, mean, n=3, plasma, read-out: Tmax",3 h
same,AUC,"75 mg, 75 mg BID, C1D21, median, n=3, plasma, read-out: AUC0–12",2290 ng·h/mL
same,AUC(0-t),"75 mg, 75 mg BID, C1D21, median, n=3, plasma, read-out: AUC0–last",4300 ng·h/mL
same,Cmax,"75 mg, 75 mg BID, C1D21, median, n=3, plasma, read-out: Cmax",331 ng/mL
same,Tmax,"75 mg, 75 mg BID, C1D21, median, n=3, plasma, read-out: Tmax",1.9 h
same,AUC,"100 mg, QD, C1D1, n 1, read-out: AUC0–12, Mean",1350 ng·h/mL
same,AUC,"100 mg, QD, C1D1, n 1, read-out: AUC0–12, Median",1350 ng·h/mL
same,AUC(0-t),"100 mg, QD, C1D1, read-out: AUC0–last, Mean",875 ng·h/mL
same,AUC(0-t),"100 mg, QD, C1D1, read-out: AUC0–last, Median",460 ng·h/mL
same,Cmax,"100 mg, QD, C1D1, read-out: Cmax, Mean",141 ng/mL
same,Cmax,"100 mg, QD, C1D1, read-out: Cmax, Median",112 ng/mL
same,Tmax,"100 mg, QD, C1D1, read-out: Tmax, Mean",0.8 h
same,Tmax,"100 mg, QD, C1D1, read-out: Tmax, Median",0.9 h
same,AUC(0-t),"100 mg, QD, C1D21, read-out: AUC0–last, Mean",1800 ng·h/mL
same,AUC(0-t),"100 mg, QD, C1D21, read-out: AUC0–last, Median",1800 ng·h/mL
same,Cmax,"100 mg, QD, C1D21, read-out: Cmax, Mean",436 ng/mL
same,Cmax,"100 mg, QD, C1D21, read-out: Cmax, Median",436 ng/mL
same,Tmax,"100 mg, QD, C1D21, read-out: Tmax, Mean",1.9 h
same,Tmax,"100 mg, QD, C1D21, read-out: Tmax, Median",1.9 h
same,AUC,"110 mg, 110 mg BID, C1D1, mean, n=3, plasma, read-out: AUC0–12",639 ng·h/mL
same,AUC(0-t),"110 mg, 110 mg BID, C1D1, mean, n=3, plasma, read-out: AUC0–last",1170 ng·h/mL
same,Cmax,"110 mg, 110 mg BID, C1D1, mean, n=3, plasma, read-out: Cmax",95.2 ng/mL
same,Tmax,"110 mg, 110 mg BID, C1D1, mean, n=3, plasma, read-out: Tmax",3 h
same,AUC,"110 mg, 110 mg BID, C1D1, median, n=3, plasma, read-out: AUC0–12",593 ng·h/mL
same,AUC(0-t),"110 mg, 110 mg BID, C1D1, median, n=3, plasma, read-out: AUC0–last",1130 ng·h/mL
